Laboratory results from article PMC7052167, “TCR–pMHC bond conformation controls TCR ligand discrimination” (Cellular and Molecular Immunology, 2019).

How the values were obtained:
Type in all cases: cell-based, mouse
[1] = test system: TCR–CD3ζ complex of 5C.C7 T cells; test: Transmembrane TCR–CD3ζ FRET2 (GFP/Alexa Fluor 568), intramolecular TCR–CD3ζ distance; settings: 10 μM PP2
Text: To determine the conformation of a single TCR–pMHC bond, a TCR and a pMHC were site-specifically labeled with the FRET acceptor Cy5 and the FRET donor Cy3, respectively.[8] The peptide within the MHC molecule was labeled with Cy3, and the TCR was labeled with the anti-TCR single-chain variable fragment (scFv) J1-Cy5 (Fig. 1a and Fig. S1a). The intermolecular distance between Cy3 and Cy5 provided a reasonable approximation of the conformation (or compactness) of the TCR–pMHC bond. The conformation of a single TCR–pMHC bond on the cell surface was measured by Cy3/Cy5 FRET (FRET1) (Fig. 1a) in real time by total internal reflection fluorescence (TIRF) microscopy (Fig. S1b). The Cy3/Cy5 inter-dye distance of a TCR–pMHC bond is denoted as the TCR–pMHC bond distance to describe the TCR–pMHC bond conformation in the following paragraphs. […] The real-time intramolecular distances of the TCR–CD3ζ complexes were measured by GFP/Alexa Fluor 568 FRET (FRET2) (Fig. 1a) using epifluorescence time-lapse microscopy (Fig. S1b).
It is not clear what induces the dissociation of CD3ζ from the membrane to initiate T-cell intracellular signaling. […] We tracked and measured the FRET efficiencies of each individual microcluster in real time. […]

[2] = test system: 5C.C7 T cell; test: T-cell calcium signaling (fluorescence imaging); settings: 10 μM PP2; X-Rhod-5F indicator, 37 °C
Text: To understand how the TCR–pMHC bond conformation triggers T-cell signaling, we devised a fluorescence micropipette assay to measure real-time T-cell calcium signaling at the single-cell level. Fast single T-cell calcium flux was observed upon T cell/APC contact (bond formation). Consistently, the calcium signaling amplitude and speed were dependent on the peptide potency (Fig. 5e, f, Fig. S15, and Movie S7). To link the TCR conformational change to TCR signaling, we simultaneously plotted the association of the TCR–CD3ζ conformational change with the Ca^2+ signal against the stimulation time. […] Ca^2+ release in turn drives the dissociation of positively charged CD3ζ from the negatively charged phospholipids in the plasma membrane[32] to expose the CD3ζ ITAM domains for phosphorylation via a Ca^2+ signaling feedback loop (Fig. 5h).
(§1) To measure the TCR–pMHC bond distance by smFRET in the absence of CD4 binding, T cells were incubated with 10 μg/mL anti-CD4 antibody (GK 1.5, Biolegend) and 0.027 µg/µL of Cy5-J1 scFV for 30 min at 4 °C. After three washes, the cells were added to a lipid bilayer containing Cy3-pMHCs, and smFRET assays were performed in the continuous presence of 10 μg/mL anti-CD4 antibody at 37 °C using TIRF microscopy. […]

[3] = test system: TCR microclusters of 5C.C7 T cells; test: TCR microcluster formation at the T-cell synapse; settings: 10 μM PP2
Text: TCRs form microclusters upon antigen stimulation (Movie S4). To measure the conformational dynamics of single TCR–pMHC bonds without possible interference from TCR microclusters, we used latrunculin A (LA) to prevent the formation of TCR microclusters during smFRET measurements. […] We then performed smFRET in the absence of TCR microclusters.
To test whether TCR–CD3ζ conformational changes were dependent on TCR signaling, we used an Src kinase inhibitor PP2[27] to block TCR signaling. Consistent with the results of a previous study,[21] […] To reveal the role of TCR signaling in TCR–CD3ζ conformational changes, we plotted the time trajectories of the normalized intramolecular TCR–CD3ζ distances against the stimulation time in the absence and presence of PP2 (Fig. 4d). In the absence of PP2, the intracellular CD3ζ chain quickly separated from the TCR extracellular domain upon TCR engagement with the K5 pMHC and then reached a stable, fully extended TCR–CD3ζ conformation.
as §1

## CC(C)(C)n1nc(-c2ccc(Cl)cc2)c2c(N)ncnc21 [PP2]
[1]; K5 pMHC, 37 °C
  effect of PP2 on TCR–CD3ζ conformational change: completely abolished the TCR-CD3 conformational change
[1]; MCC and 102S pMHCs, Fig. S11
  effect of PP2 on TCR–CD3ζ conformational change (MCC and 102S): this effect of TCR signaling was also found
[2]
  effect of PP2 on T-cell calcium signaling: completely abrogated T-cell calcium signaling
[3]
  effect of PP2 on TCR microcluster formation: TCRs could still form microclusters
